Values of other authors in article PMC10096175, “An In Vitro Antimicrobial, Anticancer and Antioxidant Activity of N–[(2–Arylmethylthio)phenylsulfonyl]cinnamamide Derivatives” (Molecules, 2023).
≈ marks a conversion by molar mass, not a printed value.

Key:
[1] = test system: mouse melanoma B16–F10 cell line; parameters: method as in PMID 21783370; conditions: cited from earlier work
[2] = test system: human breast cancer MCF-7 cells; parameters: method as in PMID 30389289; conditions: cited from earlier work
S. aureus = test system: S. aureus; parameters: method as in PMID 19231901; conditions: cited from earlier work
E. coli = test system: E. coli; parameters: method as in PMID 19231901; conditions: cited from earlier work
[3] = test system: quorum sensing system of C. violaceum; parameters: method as in doi:10.1016/j.ibiod.2018.06.003; conditions: at 1 mM; cited from earlier work

Compound: O=C(/C=C/c1ccc(Br)cc1)NS(=O)(=O)c1ccc(F)cc1 [(E)–3–(4–bromophenyl)–N–(4–fluorophenylsulfonyl)acrylamide]
- IC50 [1]: 1.2 mg/L (≈ 3.12 µM)

Compound: O=C(/C=C/c1ccc(F)cc1)NS(=O)(=O)c1ccc(F)cc1 [(E)–3–(4–fluorophenyl)–N–(4-fluorophenylsulfonyl)acrylamide]
- IC50 [1]: 0.8 mg/L (≈ 2.47 µM)

Compound: O=C(/C=C/c1ccc2c(c1)OCO2)NS(=O)(=O)c1ccccc1 [(E)–3–(benzo[d][1,3]dioxol–5–yl)–N–(phenylsulfonyl)acrylamide]
- IC50 [2]: 0.17 mg/L (≈ 0.513 µM)

Compound: COC(=O)/C=C/c1ccccc1 [methyl trans-cinnamate]
- Concentration that completely inhibited growth (S. aureus): 3.1 mM
- Concentration that completely inhibited growth (E. coli): 6.2 mM
- Quorum sensing inhibition [3]: completely inhibit
